Experimental data taken from US20230111310A1, “CARBOXYLIC ACID DERIVATIVE-SUBSTITUTED IMINO ARYL COMPOUND, PREPARATION METHOD THEREFOR, HERBICIDAL COMPOSITION AND USE THEREOF” (Qingdao Kingagroot Chemical Compound Co., Ltd., priority 2020, published 2023).

Legend:
Assay in all cases: Weeding effect in post-emergence stage
Assay type in all cases: in vivo
Settings in all cases: level of fresh weight growth control rate
Setaria viridis = tested on: Setaria viridis
Outline: (§1)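 Seeds are sown in soil-filled pots under 0.5-2 cm soil and grown 2 weeks in greenhouse. Plants at 2-3 leaves are sprayed with compound (acetone, Tween 80, 1.5 liter/ha methyl oleate EC, water) at 7.5 to 500 g/ha. Damage is rated 3 weeks later, averaging three repeats.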

Digitaria sanguinalis = tested on: Digitaria sanguinalis
Outline: as §1

Abutilon theophrasti = tested on: Abutilon theophrasti
Outline: as §1

Eleusine indica = tested on: Eleusine indica
Outline: as §1

Alopecurus japonicus = tested on: Alopecurus japonicus
Outline: as §1

Echinochloa crusgalli = tested on: Echinochloa crusgalli
Outline: as §1

Row | Structure (SMILES) | Weeding effect in post-emergence stage, Setaria viridis (Setaria viridis; Dose 15 g/ha) | Weeding effect in post-emergence stage, Digitaria sanguinalis (Digitaria sanguinalis; Dose 15 g/ha) | Weeding effect in post-emergence stage, Abutilon theophrasti (Abutilon theophrasti; Dose 15 g/ha) | Weeding effect in post-emergence stage, Eleusine indica (Eleusine indica; Dose 15 g/ha) | Weeding effect in post-emergence stage, Alopecurus japonicus (Alopecurus japonicus; Dose 15 g/ha) | Weeding effect in post-emergence stage, Echinochloa crusgalli (Echinochloa crusgalli; Dose 15 g/ha) | further results
1 | COCCOC(=O)C(C)O/N=C/c1cc(-n2c(=O)cc(C(F)(F)F)n(C)c2=O)c(F)cc1Cl (stereo not drawn) [Compound 230] | 5 (Level 5: growth control rate is above 85%) | 5 (Level 5: growth control rate is above 85%) | 5 (Level 5: growth control rate is above 85%) | 5 (Level 5: growth control rate is above 85%) | 5 (Level 5: growth control rate is above 85%) | 5 (Level 5: growth control rate is above 85%) | 
2 | CCOCCOC(=O)C(C)O/N=C/c1cc(-n2c(=O)cc(C(F)(F)F)n(C)c2=O)c(F)cc1Cl (stereo not drawn) [Compound 231] | 5 (Level 5: growth control rate is above 85%) | 5 (Level 5: growth control rate is above 85%) | 5 (Level 5: growth control rate is above 85%) | 5 (Level 5: growth control rate is above 85%) | 5 (Level 5: growth control rate is above 85%) | 5 (Level 5: growth control rate is above 85%) | 
3 | CCCCOCCOC(=O)C(C)O/N=C/c1cc(-n2c(=O)cc(C(F)(F)F)n(C)c2=O)c(F)cc1Cl (stereo not drawn) [Compound 232] | 5 (Level 5: growth control rate is above 85%) | 5 (Level 5: growth control rate is above 85%) | 5 (Level 5: growth control rate is above 85%) | 5 (Level 5: growth control rate is above 85%) | 5 (Level 5: growth control rate is above 85%) | 5 (Level 5: growth control rate is above 85%) | 
4 | CSCOC(=O)C(C)O/N=C/c1cc(-n2c(=O)cc(C(F)(F)F)n(C)c2=O)c(F)cc1Cl (stereo not drawn) [Compound 233] | 5 (Level 5: growth control rate is above 85%) | 5 (Level 5: growth control rate is above 85%) | 5 (Level 5: growth control rate is above 85%) | 5 (Level 5: growth control rate is above 85%) | 5 (Level 5: growth control rate is above 85%) | 5 (Level 5: growth control rate is above 85%) | 
5 | CSCCOC(=O)C(C)O/N=C/c1cc(-n2c(=O)cc(C(F)(F)F)n(C)c2=O)c(F)cc1Cl (stereo not drawn) [Compound 234] | 5 (Level 5: growth control rate is above 85%) | 5 (Level 5: growth control rate is above 85%) | 5 (Level 5: growth control rate is above 85%) | 5 (Level 5: growth control rate is above 85%) | 5 (Level 5: growth control rate is above 85%) | 5 (Level 5: growth control rate is above 85%) | 
6 | CCCOC(=O)OC(=O)C(C)O/N=C/c1cc(-n2c(=O)cc(C(F)(F)F)n(C)c2=O)c(F)cc1Cl (stereo not drawn) [Compound 236] |  |  |  |  |  |  | Weeding effect in post-emergence stage, Setaria viridis (Setaria viridis; Dose 60 g/ha): 5 (Level 5: growth control rate is above 85%); Weeding effect in post-emergence stage, Digitaria sanguinalis (Digitaria sanguinalis; Dose 60 g/ha): 5 (Level 5: growth control rate is above 85%); Weeding effect in post-emergence stage, Abutilon theophrasti (Abutilon theophrasti; Dose 60 g/ha): 5 (Level 5: growth control rate is above 85%); Weeding effect in post-emergence stage, Eleusine indica (Eleusine indica; Dose 60 g/ha): 5 (Level 5: growth control rate is above 85%); Weeding effect in post-emergence stage, Alopecurus japonicus (Alopecurus japonicus; Dose 60 g/ha): 5 (Level 5: growth control rate is above 85%); Weeding effect in post-emergence stage, Echinochloa crusgalli (Echinochloa crusgalli; Dose 60 g/ha): 5 (Level 5: growth control rate is above 85%)
7 | CC(=O)COC(=O)C(C)O/N=C/c1cc(-n2c(=O)cc(C(F)(F)F)n(C)c2=O)c(F)cc1Cl (stereo not drawn) [Compound 238] | 5 (Level 5: growth control rate is above 85%) | 5 (Level 5: growth control rate is above 85%) | 5 (Level 5: growth control rate is above 85%) | 5 (Level 5: growth control rate is above 85%) | 5 (Level 5: growth control rate is above 85%) | 5 (Level 5: growth control rate is above 85%) | 
8 | CCOC(=O)COC(=O)C(C)O/N=C/c1cc(-n2c(=O)cc(C(F)(F)F)n(C)c2=O)c(F)cc1Cl (stereo not drawn) [Compound 239] | 5 (Level 5: growth control rate is above 85%) | 5 (Level 5: growth control rate is above 85%) | 5 (Level 5: growth control rate is above 85%) | 5 (Level 5: growth control rate is above 85%) | 5 (Level 5: growth control rate is above 85%) | 5 (Level 5: growth control rate is above 85%) | 
9 | COC(=O)CCOC(=O)C(C)O/N=C/c1cc(-n2c(=O)cc(C(F)(F)F)n(C)c2=O)c(F)cc1Cl (stereo not drawn) [Compound 240] |  |  |  |  |  |  | Weeding effect in post-emergence stage, Setaria viridis (Setaria viridis; Dose 30 g/ha): 5 (Level 5: growth control rate is above 85%); Weeding effect in post-emergence stage, Digitaria sanguinalis (Digitaria sanguinalis; Dose 30 g/ha): 5 (Level 5: growth control rate is above 85%); Weeding effect in post-emergence stage, Abutilon theophrasti (Abutilon theophrasti; Dose 30 g/ha): 5 (Level 5: growth control rate is above 85%); Weeding effect in post-emergence stage, Eleusine indica (Eleusine indica; Dose 30 g/ha): 5 (Level 5: growth control rate is above 85%); Weeding effect in post-emergence stage, Alopecurus japonicus (Alopecurus japonicus; Dose 30 g/ha): 5 (Level 5: growth control rate is above 85%); Weeding effect in post-emergence stage, Echinochloa crusgalli (Echinochloa crusgalli; Dose 30 g/ha): 5 (Level 5: growth control rate is above 85%)
10 | COC(=O)C(C)OC(=O)C(C)O/N=C/c1cc(-n2c(=O)cc(C(F)(F)F)n(C)c2=O)c(F)cc1Cl (stereo not drawn) [Compound 241] |  |  |  |  |  |  | Weeding effect in post-emergence stage, Setaria viridis (Setaria viridis; Dose 30 g/ha): 5 (Level 5: growth control rate is above 85%); Weeding effect in post-emergence stage, Digitaria sanguinalis (Digitaria sanguinalis; Dose 30 g/ha): 5 (Level 5: growth control rate is above 85%); Weeding effect in post-emergence stage, Abutilon theophrasti (Abutilon theophrasti; Dose 30 g/ha): 5 (Level 5: growth control rate is above 85%); Weeding effect in post-emergence stage, Eleusine indica (Eleusine indica; Dose 30 g/ha): 5 (Level 5: growth control rate is above 85%); Weeding effect in post-emergence stage, Alopecurus japonicus (Alopecurus japonicus; Dose 30 g/ha): 5 (Level 5: growth control rate is above 85%); Weeding effect in post-emergence stage, Echinochloa crusgalli (Echinochloa crusgalli; Dose 30 g/ha): 5 (Level 5: growth control rate is above 85%)
11 | COC(=O)C(C)(C)OC(=O)C(C)O/N=C/c1cc(-n2c(=O)cc(C(F)(F)F)n(C)c2=O)c(F)cc1Cl (stereo not drawn) [Compound 243] | 5 (Level 5: growth control rate is above 85%) | 5 (Level 5: growth control rate is above 85%) | 5 (Level 5: growth control rate is above 85%) | 5 (Level 5: growth control rate is above 85%) | 5 (Level 5: growth control rate is above 85%) | 5 (Level 5: growth control rate is above 85%) | 
12 | COC(=O)C(OC)OC(=O)C(C)O/N=C/c1cc(-n2c(=O)cc(C(F)(F)F)n(C)c2=O)c(F)cc1Cl (stereo not drawn) [Compound 245] |  |  |  |  |  |  | Weeding effect in post-emergence stage, Setaria viridis (Setaria viridis; Dose 30 g/ha): 5 (Level 5: growth control rate is above 85%); Weeding effect in post-emergence stage, Digitaria sanguinalis (Digitaria sanguinalis; Dose 30 g/ha): 5 (Level 5: growth control rate is above 85%); Weeding effect in post-emergence stage, Abutilon theophrasti (Abutilon theophrasti; Dose 30 g/ha): 5 (Level 5: growth control rate is above 85%); Weeding effect in post-emergence stage, Eleusine indica (Eleusine indica; Dose 30 g/ha): 5 (Level 5: growth control rate is above 85%); Weeding effect in post-emergence stage, Alopecurus japonicus (Alopecurus japonicus; Dose 30 g/ha): 5 (Level 5: growth control rate is above 85%); Weeding effect in post-emergence stage, Echinochloa crusgalli (Echinochloa crusgalli; Dose 30 g/ha): 5 (Level 5: growth control rate is above 85%)
13 | CCOC(=O)OC(C)OC(=O)C(C)O/N=C/c1cc(-n2c(=O)cc(C(F)(F)F)n(C)c2=O)c(F)cc1Cl (stereo not drawn) [Compound 246] | 5 (Level 5: growth control rate is above 85%) | 5 (Level 5: growth control rate is above 85%) | 5 (Level 5: growth control rate is above 85%) | 5 (Level 5: growth control rate is above 85%) | 5 (Level 5: growth control rate is above 85%) | 5 (Level 5: growth control rate is above 85%) | 
14 | CC(C)=NOC(=O)C(C)O/N=C/c1cc(-n2c(=O)cc(C(F)(F)F)n(C)c2=O)c(F)cc1Cl (stereo not drawn) [Compound 248] | 5 (Level 5: growth control rate is above 85%) | 5 (Level 5: growth control rate is above 85%) | 5 (Level 5: growth control rate is above 85%) | 5 (Level 5: growth control rate is above 85%) | 5 (Level 5: growth control rate is above 85%) | 5 (Level 5: growth control rate is above 85%) | 
15 | CC/C(C)=N/OC(=O)C(C)O/N=C/c1cc(-n2c(=O)cc(C(F)(F)F)n(C)c2=O)c(F)cc1Cl (stereo not drawn) [Compound 249] | 5 (Level 5: growth control rate is above 85%) | 5 (Level 5: growth control rate is above 85%) | 5 (Level 5: growth control rate is above 85%) | 5 (Level 5: growth control rate is above 85%) | 5 (Level 5: growth control rate is above 85%) | 5 (Level 5: growth control rate is above 85%) | 
